The numbers were not newly measured in patent US20210338693A1, “Gel Compositions for Transdermal Delivery to Maximize Drug Concentrations in the Stratum Corneum and Serum and Methods of Use Thereof” (Viramal Limited, priority 2016, published 2021), which cites them from elsewhere.

The conditions of this data set: in vivo.

A word on the half-life: it is the time needed for the level to fall by half in the phase considered. On to `C[C@]12CC[C@H]3[C@@H](CCC4=CC(=O)CC[C@@]43C)[C@@H]1CC[C@@H]2O` [Testosterone], for which the half-life is reported as 1.4 h.
